As usually defined, the melting point is the temperature, or range, at which the solid turns liquid.

`CC(C)(C)OC(=O)N1CCCC(c2ccc(C(=O)Nc3ccc(Nc4cc(-c5cccc6c5oc5ccccc56)ncn4)cc3)cc2)C1` (stereo not shown) [Compound 20, tert-Butyl 3-{4-[4-(6-Dibenzofuran-4-yl-pyrimidin-4-ylamino)-phenylcarbamoyl]-phenyl}-piperidin-1-carboxylate]: the melting point was 259 to 261 °C. `CC(C)(C)OC(=O)Nc1ccc(CC(=O)Nc2ccc(Nc3cc(-c4cccc5c4oc4ccccc45)ncn3)cc2)cc1` [Compound 21, tert-Butyl N-(4-{[4-(6-dibenzofuran-4-yl-pyrimidin-4-ylamino)-phenylcarbamoyl]-methyl}-phenyl)-carbamate] yielded a melting point greater than 320 °C. In the case of `CC(C)(C)OC(=O)NCc1cccc(C(=O)Nc2ccc(Nc3cc(-c4cccc5c4oc4ccccc45)ncn3)cc2)c1` [Compound 22, tert-Butyl N-{3-[4-(6-Dibenzofuran-4-yl-pyrimidin-4-ylamino)-phenylcarbamoyl]-benzyl}-carbamate] it was 237 °C; in that of `CC(C)(C)OC(=O)NCCc1ccc(C(=O)Nc2ccc(Nc3cc(-c4cccc5c4oc4ccccc45)ncn3)cc2)cc1` [Compound 23, tert-Butyl N-(2-{4-[4-(6-Dibenzofurane-4-yl-pyrimidin-4-ylamino)-phenylcarbamoyl]phenyl}-ethyl)-carbamate], greater than 250 °C; in that of `CC(C)(C)OC(=O)NCc1ccnc(C(=O)Nc2ccc(Nc3cc(-c4cccc5c4oc4ccccc45)ncn3)cc2)c1` [Compound 24, tert-Butyl N-{2-[4-(6-Dibenzofuran-4-yl-pyrimidin-4-ylamino)-phenylcarbamoyl]-pyridin-4-ylmethyl}-carbamate], 245 °C. To `CC(C)(C)OC(=O)NCc1ccc(C(=O)Nc2cccc(Nc3cc(-c4cccc5c4oc4ccccc45)ncn3)c2)cc1` [Compound 25, tert-Butyl {4-[3-(6-dibenzofuran-4-yl-pyrimidin-4-ylamino)-phenylcarbamoyl]-benzyl}-carbamate] belongs 233 to 236 °C; to `CC(C)(C)OC(=O)NCCc1ccc(C(=O)Nc2cccc(Nc3cc(-c4cccc5c4oc4ccccc45)ncn3)c2)cc1` [Compound 26, tert-Butyl N-(2-{4-[3-(6-dibenzofuran-4-yl-pyrimidin-4-ylamino)-phenylcarbamoyl]-phenyl}-ethyl)-carbamate], 239 to 241 °C.

For the molecule `CC(C)(C)OC(=O)Nc1cccc(C(=O)Nc2cccc(Nc3cc(-c4cccc5c4oc4ccccc45)ncn3)c2)c1` [Compound 28, tert-Butyl {3-[3-(6-dibenzofuran-4-yl-pyrimidin-4-ylamino)-phenylcarbamoyl]-phenyl}-carbamate], the melting point lay in the range of 160 to 163 °C. To `CC(C)(C)OC(=O)NCc1cccc(C(=O)Nc2cccc(Nc3cc(-c4cccc5c4oc4ccccc45)ncn3)c2)c1` [Compound 29, tert-Butyl N-{3-[3-(6-Dibenzofuran-4-yl-pyrimidin-4-ylamino)-phenylcarbamoyl]-benzyl}-carbamate] belongs 216 to 219 °C. `CC(C)(C)OC(=O)Nc1ccc(C(=O)Nc2cccc(Nc3cc(-c4cccc5c4oc4ccccc45)ncn3)c2)cc1` [Compound 30, tert-Butyl N-{4-[3-(6-Dibenzofuran-4-yl-pyrimidin-4-ylamino)-phenylcarbamoyl]-phenyl}-carbamate] returned a melting point of 214 °C. In turn, `CN(C)c1cccc(C(=O)Nc2cccc(Nc3cc(-c4cccc5c4oc4ccccc45)ncn3)c2)c1` [Compound 48, N-[3-(6-Dibenzofuran-4-yl-pyrimidin-4-ylamino)-phenyl]-3-dimethylamino-benzamide] gave a melting point of 245 to 251 °C. In the case of `Nc1ccccc1C(=O)Nc1ccc(Nc2cc(-c3cccc4c3oc3ccccc34)ncn2)cc1.O=C(O)C(F)(F)F` [Compound 50, 2-Amino-N-[4-(6-dibenzofuran-4-yl-pyrimidin-4-ylamino)-phenyl]-benzamide trifluoroacetate] it was 136 to 138 °C; in that of `NCCc1ccc(C(=O)Nc2ccc(Nc3cc(-c4cccc5c4oc4ccccc45)ncn3)cc2)cc1.O=C(O)C(F)(F)F` [Compound 55, 4-(2-Amino-ethyl)-N-[4-(6-dibenzofuran-4-yl-pyrimidin-4-ylamino)-phenyl]-benzamide trifluoroacetate], 202 °C; in that of `NCCc1ccc(C(=O)Nc2cccc(Nc3cc(-c4cccc5c4oc4ccccc45)ncn3)c2)cc1.O=C(O)C(F)(F)F` [Compound 58, 4-(2-Amino-ethyl)-N-[3-(6-dibenzofuran-4-yl-pyrimidin-4-ylamino)-phenyl]-benzamide trifluoroacetate], 87 to 90 °C. To `NCc1ccc(C(=O)Nc2ccc(Nc3cc(-c4cccc5c4oc4ccccc45)ncn3)cc2)cn1.O=C(O)C(F)(F)F` [Compound 64, 6-Aminomethyl-N-[4-(6-dibenzofuran-4-yl-pyrimidin-4-ylamino)-phenyl]-nicotinamide trifluoroacetate] belongs 145 to 150 °C; to `NCc1cc(C(=O)Nc2ccc(Nc3cc(-c4cccc5c4oc4ccccc45)ncn3)cc2)ccn1.O=C(O)C(F)(F)F` [Compound 65, 2-Aminomethyl-N-[4-(6-dibenzofuran-4-yl-pyrimidin-4-ylamino)-phenyl]-isonicotinamide trifluoroacetate], 248 to 250 °C. In the case of `NCc1ccc(CC(=O)Nc2ccc(Nc3cc(-c4cccc5c4oc4ccccc45)ncn3)cc2)cc1.O=C(O)C(F)(F)F` [Compound 66, 2-(4-Aminomethyl-phenyl)-N-[4-(6-dibenzofuran-4-yl-pyrimidin-4-ylamino)-phenyl]-acetamide trifluoroacetate] it was 251 to 255 °C; in that of `NCC(C(=O)Nc1ccc(Nc2cc(-c3cccc4c3oc3ccccc34)ncn2)cc1)c1ccc(Cl)c(Cl)c1.O=C(O)C(F)(F)F` (stereo not shown) [Compound 75, 3-Amino-N-[4-(6-dibenzofuran-4-yl-pyrimidin-4-ylamino)-phenyl]-2-(3,4-dichloro-phenyl)-propionamide trifluoroacetate], 195 to 205 °C; in that of `NCC(C(=O)Nc1cccc(Nc2cc(-c3cccc4c3oc3ccccc34)ncn2)c1)c1ccc(Cl)c(Cl)c1.O=C(O)C(F)(F)F` (stereo not shown) [Compound 76, 3-Amino-N-[3-(6-dibenzofuran-4-yl-pyrimidin-4-ylamino)-phenyl]-2-(3,4-dichlorophenyl)-propionamide trifluoroacetat], 138 to 145 °C.
